From patent publication US20250171490A1, “DHEA-DERIVED STEROIDS” (DEBRECENI EGYETEM, priority 2022, published 2025)
Where “and” joins values, the source holds several entries; their conditions need not be identical. Equal entries are not always repeated. Entries after “also recorded” stand apart in the source; their conditions may differ.

Assays:
Assay type in all cases: in vivo
ApoE^−/− mice [1] = assay: Survival of ApoE−/− mice during treatment; conditions: atherogenic diet; for survival / mortality of mice / mouse death before the end of the experiment: 8 weeks treatment
From the text: (§1) All the animal experiments were approved by the guidelines from Directive 2010/63/EU of the European Parliament on the protection of animals used for scientific purposes. Animal experiments performed in this study were approved by the Scientific and Research Ethics Committee of the Scientific Council of Health of the Hungarian Government under the registration number of DE MÁB/157-5/2010 and are reported in accordance with the ARRIVE guidelines. C57BL/6 ApoE^−/− mice (The Jackson Laboratory; B6.129P2 Apoetm1Unc/J; RRID: IMSR_JAX: 002052) were maintained at the University of Debrecen under specific pathogen-free conditions in accordance with guidelines from Institutional Ethical Committee. To induce atherosclerotic plaque formation, standard chow diet was changed to atherogenic diet (15% fat, 1.25% cholesterol, ssniff Spezialdiäten GmbH, Soest, Germany) at the age of 8 weeks. Mice were randomly divided into two groups and parallelly with the atherogenic diet, mice received tap-water or DHEA-derived steroid (100 μg steroid/mouse/day) in tap-water. The DHEA-derived steroid was replaced every day. Aortas were harvested after 8 weeks of treatment. All mice were euthanized by a predictable and controllable administering of slow-fill compressed CO2 asphyxiation. Atherogenic food composition (high-fat diet): Crude Nutrients (%): Crude Protein 19%; crude fat 15.2%; crude fiber 3.4%; crude ash 6.3%; starch 25.6%; sugar 11.2%; Additives (per kg): vitamin A 15,000 IU; vitamin D3 1,000 IU; vitamin E 110 mg; vitamin K3 5 mg; vitamin C 0 mg; copper 13 mg.

ApoE^−/− mice [2] = assay: Atherosclerotic plaque formation in ApoE−/− mice on atherogenic diet, en face Oil Red O staining of whole aorta (preventive treatment); conditions: 100 μg steroid/mouse/day in tap-water, 8 weeks, vs tap water control
From the text: as §1
(§2) Aortas were dissected from the aortic arch to the iliac bifurcation. After that, the fatty tissue was carefully removed under a stereomicroscope (M125; Leica Biosystems Nussloch GmbH). […] 0.07 g ORO powder was dissolved in 25 mL methanol and mixed for 10 min on a magnetic stirrer. Finally, 10 mL 1 mol/L NaOH was added to the ORO solution and filtered it. Images were taken with the camera (Nikon D3200; Nikon Corp., Japan) and whole aorta plaque area was analyzed with ImageJ 1.49 software.

ApoE^−/− mice [3] = assay: Aortic valve calcification in ApoE−/− mice on high-fat diet, von Kossa staining (preventive treatment); conditions: 8 weeks; for calcification / mineralization of aortic valve (von Kossa): treatment in drinking water, vs tap water
From the text: as §1
(§3) Immunohistochemistry from the aortic root was performed on formalin-fixed, paraffin-embedded tissue sections. 4 μm slides were then deparaffinated using xylol and ethanol. The serial sections were stained with Gill Hematoxylin solution (Merck) followed by eosin counterstaining or with von Kossa. For digital documentation, the stained specimens were scanned with a Mirax Midi scanner (3D Histech, Budapest, Hungary). Macroscopic pictures of the arteries were taken with Nikon D3200 camera (Nikon Corp.; Minato, Tokyo, Japan).

H2S = assay: Sulfide (H2S) level of mice plasma, zinc precipitation assay
From the text: as §1
Sulfide levels were measured with zinc precipitation method based upon developed by Gilboa-Garber [Gilboa-Garber N. 1971] and modified by A. D. Ang et al. [Ang A D, et al. 2012]. The human carotid artery was homogenized under liquid nitrogen in 7.4 pH PBS and sonicated it. […] After 10 min the absorbance of the generated methylene blue (MB) was measured with a spectrophotometer at 667 nm. Since during the reaction 1 mol/L MB formed from 1 mol/L sulfide, the concentration was determined by the MB's extinction coefficient (30 200 M 1 cm 1). […]

ApoE^−/− mice [4] = assay: Reversal of already formed atherosclerotic lesion in ApoE−/− mice, Oil Red O (therapeutic treatment); conditions: for already formed atherosclerotic lesion (plaque size, Oil Red O): atherogenic diet 4 or 6 weeks, then chop diet plus S2 in water for 4 or 8 weeks, vs tap water, sodium salt
From the text: (§4) In the further part of the present work, it was examined whether the compounds of the invention have positive therapeutic effect, too. In the above-mentioned animal model, the present inventors developed during eight weeks real atherosclerosis, and for an additional eight weeks animals were given S2 compound (100 micrograms per day per animal). Control mice got pure drinking water. At the end of experiment the size and number of sclerotic plaques, the calcification of heart valves and the amount of hydrogen sulfide was measured. […] This means the compounds of the invention have not only preventive, but also therapeutic effect.
as §2
(§5) From a pharmacological point of view to the best of inventors' knowledge, there is no medicine in the market to reverse atherosclerosis and calcification of vessels. Current drugs only slow down the progression of atherosclerosis. Therefore, the present inventors examined the possibility of S2 steroid treatment to reverse the already formed atherosclerotic lesion and calcification. In this experiment the present inventors kept the mice on atherogenic diet for 4 or 6 weeks for development of atherosclerotic lesion and calcification. After that the present inventors changed the atherogenic diet to chop diet and they added S2 steroid to the mice's water for 4 weeks and 8 weeks. Control group got tap water only.

ApoE^−/− mice [5] = assay: Reversal of already formed aortic valve calcification in ApoE−/− mice, von Kossa (therapeutic treatment); conditions: for already formed aortic valve extracellular matrix mineralization (von Kossa): high-fat diet 6 weeks, then chop diet plus S2 in tap water for 4 weeks, vs tap water, sodium salt
From the text: as §4, §3, §5

[6] = listed as DHEA-derived steroid, sodium salt
[7] = atherosclerosis developed during eight weeks, then 100 micrograms per day per animal for additional eight weeks, vs drinking water
[8] = listed as DHEA-derived S2 steroid

Compound | survival / mortality of mice (ApoE^−/− mice [1]) | atherosclerotic plaque formation / area of atherosclerotic lesion (Oil Red O, whole aorta) (ApoE^−/− mice [2]; sodium salt) | calcification / mineralization of aortic valve (von Kossa) (ApoE^−/− mice [3]) | day of the treatment regime on which the first treated animal died (ApoE^−/− mice [1]) [days] | mouse death before the end of the experiment (ApoE^−/− mice [1]) | atherosclerotic plaque formation / area of atherosclerotic lesion (Oil Red O, whole aorta) (ApoE^−/− mice [2]) | also measured
CCCCCC(=O)OC1CC[C@H]2[C@@H]3CC=C4CC(OS(=O)(=O)[O-])CC[C@]4(C)[C@H]3CC[C@]12C.[Na+] (some centres unmarked) [C6, 17-hexanoyloxy-5-androstene-3-sulfate sodium salt] | survived | fail to inhibit atherosclerosis; also recorded: not Able to Abrogate Atherosclerotic Plaque Formation |  |  |  |  | 
CCCCCCCCCCCCCCCC(=O)OC1CC[C@H]2[C@@H]3CC=C4CC(OS(=O)(=O)[O-])CC[C@]4(C)[C@H]3CC[C@]12C.[Na+] (some centres unmarked) [C16, 17-palmitoyloxy-5-androstene-3-sulfate sodium salt] | survived | fail to inhibit atherosclerosis; also recorded: not Able to Abrogate Atherosclerotic Plaque Formation |  |  |  |  | 
C[C@]12CC[C@H](O)CC1=CC[C@@H]1[C@@H]2CC[C@]2(C)C(=O)CC[C@@H]12 [DHEA, Dehydroepiandrosterone] | elevated mortality rate of the animals |  | cannot decrease the mineralization of extracellular matrix of aortic valve; also recorded: Failed to Prevent Calcification of Aortic Valve | 50 | 45% and 45.5% | fail to inhibit atherosclerosis; also recorded: did not diminish the development of atherosclerosis; also recorded: not Able to Abrogate Atherosclerotic Plaque Formation | 
CCCCCCCCCCCC(=O)OC1CC[C@H]2[C@@H]3CC=C4CC(OS(=O)(=O)[O-])CC[C@]4(C)[C@H]3CC[C@]12C.[Na+] (some centres unmarked) [S2, 17-lauroyloxy-5-androstene-3-sulphate sodium salt] | survived | highly efficient both in the prevention and reversal of atherosclerosis |  |  |  |  | lower mineralized area of aortic valves calcification nodules compared to tap-water mice (ApoE^−/− mice [3]; steroid in drinking water): 91.2%; calcification / mineralization of aortic valve (von Kossa) (ApoE^−/− mice [3]; [6]): decreases the expansion of the extracellular matrix; also recorded: significantly inhibited the development of calcific nodules in aortic valves; H2S content of mice plasma (H2S; ApoE−/− mice, steroid treated vs tap-water): elevates H2S content of the mice plasma; plasma H2S concentration compared to control mice plasma (H2S; ApoE−/− mice, steroid treated vs tap-water, normalized to protein content): approximately 2.4 times; concentration of hydrogen sulfide (H2S; [7]): significantly higher; already formed atherosclerotic lesion (plaque size, Oil Red O) (ApoE^−/− mice [4]; [8]): reverses atherosclerosis; already formed atherosclerotic lesion (plaque size, Oil Red O) (ApoE^−/− mice [4]): significantly lesser atherosclerotic lesion; size and number of sclerotic plaques (ApoE^−/− mice [4]; [7]): significantly less; calcification of heart valves (ApoE^−/− mice [5]; [7]): significantly less; already formed aortic valve extracellular matrix mineralization (von Kossa) (ApoE^−/− mice [5]; [8]): reverses atherosclerosis and aortic valve calcification; already formed aortic valve extracellular matrix mineralization (von Kossa) (ApoE^−/− mice [5]): significant lesser extracellular matrix mineralization; atherosclerotic plaque formation / area of atherosclerotic lesion (Oil Red O, whole aorta) (ApoE^−/− mice [2]; [6]): inhibits atherosclerosis; also recorded: significantly lesser area of atherosclerotic lesion
Dehydroepiandrosterone sulfate [DHEA-S] | elevated mortality rate of the animals |  | cannot decrease the mineralization of extracellular matrix of aortic valve; also recorded: Failed to Prevent Calcification of Aortic Valve | 55 | 22% and 28.6% | fail to inhibit atherosclerosis; also recorded: not Able to Abrogate Atherosclerotic Plaque Formation | atherosclerotic plaque formation / area of atherosclerotic lesion (Oil Red O, whole aorta) (ApoE^−/− mice [2]; listed as DHEAS): did not diminish the development of atherosclerosis
